One may read the Cmax as the highest concentration seen after dosing. In general, AUC(0-inf) refers to the area under the concentration-time curve extrapolated to infinity. Low readings indicate less exposure, high ones more exposure. What is called bioavailability is the share of a dose that reaches the circulation, judged against a reference dose that is usually intravenous. Lower therefore signals little systemic uptake.

27 compounds from ChEMBL document CHEMBL1955773, “Hit to lead SAR study on benzoxazole derivatives for an NPY Y5 antagonist” (Bioorg Med Chem Lett, 2012) can be followed below.

Data set [1] can be described thus: Metabolic stability of the compound in rat microsomes assessed as compound remaining after 30 mins. Type of data set: ADME, Microsome. As to conditions: read-out: Stability.
Data set [2] in a line: Total clearance in rat at 0.5 mg/kg, iv and 1 mg/kg, po. Type of data set: ADME, organism-based. As to conditions: in vivo.
The nature of data set [3]: Cmax in rat at 0.5 mg/kg, iv and 1 mg/kg, po. Type of data set: ADME, organism-based. As to conditions: in vivo.
Data set [4] can be described thus: AUC (0 to infinity) in rat at 0.5 mg/kg, iv and 1 mg/kg, po. Type of data set: ADME, organism-based. As to conditions: plasma.
A short description of data set [5]: Volume of distribution at steady state in rat at 0.5 mg/kg, iv and 1 mg/kg, po. Type of data set: ADME, organism-based. As to conditions: in vivo, read-out: Vdss.
Data set [6] can be described thus: Bioavailability in rat at 0.5 mg/kg, iv and 1 mg/kg, po. Type of data set: ADME, organism-based. As to conditions: in vivo.
Data set [7] is described as follows: Ratio drug uptake in brain to plasma of rat at 1 mg/kg, po. The class given is ADME, organism-based. Further details: dose 1 mg/kg, route oral. As to conditions: read-out: BPR.
In another data set the test system is Cerebrospinal fluid. The data set is described as follows: Drug uptake in rat cerebrospinal fluid at 0.5 mg/kg, iv and 1 mg/kg, po. As to conditions: in vivo, read-out: Drug uptake. Type of data set: ADME, organism-based.

For the compound `CCS(=O)(=O)c1ccc2oc(Nc3ccc(C(C)(C)C)cc3)nc2c1`, the remaining at 0.5 h in data set [1] is 27%.
Consider `CCS(=O)(=O)c1ccc2oc(Nc3ccccc3)nc2c1`, for which, in data set [1], the remaining at 0.5 h was 53%.
`CCS(=O)(=O)c1ccc2oc(Nc3ccc(Cl)cc3)nc2c1`: the remaining at 0.5 h in data set [1] was found to be 81%.
Take `CCS(=O)(=O)c1ccc2oc(Nc3ccc(C(F)(F)F)cc3)nc2c1`: the remaining at 0.5 h in data set [1] was determined as 101%.
As for `CCS(=O)(=O)c1ccc2oc(Nc3cccc(C(F)(F)F)c3)nc2c1`, the remaining at 0.5 h in data set [1] was 63%.
Take `CCS(=O)(=O)c1ccc2oc(Nc3ccccc3C(F)(F)F)nc2c1`: in data set [1], the remaining at 0.5 h turned out to be 68%.
For `CCS(=O)(=O)c1ccc2oc(Nc3ccc(OC(F)(F)F)cc3)nc2c1`, in data set [1], the remaining at 0.5 h worked out at 97%.
With `CCS(=O)(=O)c1ccc2oc(Nc3ccc(OC(C)C)cc3)nc2c1`, the remaining at 0.5 h in data set [1] is 73%. The same compound returned a clearance in data set [2] of 66 mL/min/kg. Also, in data set [3], the highest concentration (Cmax) amounted to 6 ng/mL. This compound returned an AUC(0-inf) in data set [4] of 40 ng·h/mL. In data set [5], the Vd stood at 2.62 L/kg. In data set [6], this compound registered a bioavailability of 16%. In data set [7], the Kp was 2.63. For the same compound, in the data set on Cerebrospinal fluid, the concentration worked out at 8.8 nM.
Consider `CCS(=O)(=O)c1ccc2oc(Nc3ccc(N4CCOCC4)cc3)nc2c1`, for which, in data set [1], the remaining at 0.5 h is 88%.
As to `CCS(=O)(=O)c1ccc2oc(Nc3ccc(N4C[C@@H](C)O[C@@H](C)C4)cc3)nc2c1`, the remaining at 0.5 h in data set [1] came out at 85%. For the same compound, in data set [2], the clearance is 33 mL/min/kg. The Cmax in data set [3] was determined as 26 ng/mL. This compound came in with an AUC(0-inf) in data set [4] of 260 ng·h/mL. For the same compound, in data set [5], the Vd was 1.74 L/kg. The bioavailability in data set [6] was determined as 52%. In addition, the Kp in data set [7] was 0.64. Also, in the data set with Cerebrospinal fluid, the concentration came to 15.9 nM.
With `CCS(=O)(=O)c1ccc2oc(Nc3ccc(N4C[C@@H](C)O[C@@H](C)C4)c(F)c3)nc2c1`, the remaining at 0.5 h in data set [1] was 61%.
The same measure, in the same setting: the result for `CCS(=O)(=O)c1ccc2oc(Nc3ccc(N4C[C@@H](C)O[C@@H](C)C4)nc3)nc2c1` reads 59%; that for `CCOc1ccc(Nc2nc3cc(S(C)(=O)=O)ccc3o2)cc1`, 62%; that for `CCOc1ccc(Nc2nc3cc(S(=O)(=O)C(C)C)ccc3o2)cc1`, 49%.
As to `CCOc1ccc(Nc2nc3cc(S(=O)(=O)C(C)(C)C)ccc3o2)cc1`, in data set [1], the remaining at 0.5 h came out at 46%.
As to `CCOc1ccc(Nc2nc3cc(NS(=O)(=O)CC)ccc3o2)cc1`, the remaining at 0.5 h in data set [1] is 59%.
For `CCOc1ccc(Nc2nc3ccc(S(=O)(=O)CC)cc3o2)cc1`, the remaining at 0.5 h in data set [1] worked out at 81%.
On to `CCOc1ccc(Nc2nc3ccc(NS(=O)(=O)CC)cc3o2)cc1`, for which the remaining at 0.5 h in data set [1] amounted to 86%.
In the case of `CCOc1ccc(Nc2nc3ccc(NS(=O)(=O)C(C)(C)C)cc3o2)cc1`, in data set [1], the remaining at 0.5 h was found to be 57%.
Still for that read-out and setting: under `C[C@@H]1CN(c2ccc(Nc3nc4ccc(NS(=O)(=O)C(C)(C)C)cc4o3)cc2)C[C@H](C)O1` stands 68%.
On the same count and under the same terms, under `CCS(=O)(=O)c1ccc2oc(NC3CCCCC3)nc2c1` stands 45%.
As for `CCS(=O)(=O)c1ccc2oc(NCc3ccccc3)nc2c1`, the remaining at 0.5 h in data set [1] amounted to 46%.
`CCS(=O)(=O)c1ccc2oc(NC(C)(C)c3ccccc3)nc2c1`: the remaining at 0.5 h in data set [1] was found to be 35%.
In the case of `CCS(=O)(=O)c1ccc2oc(Nc3ccc(C(F)(F)F)nc3)nc2c1`, the remaining at 0.5 h in data set [1] worked out at 99%.
Regarding `CCS(=O)(=O)c1ccc2oc(Nc3ccc(C(F)(F)F)cn3)nc2c1`, the remaining at 0.5 h in data set [1] was determined as 97%.
Still for that read-out and setting: the result for `CCS(=O)(=O)c1ccc2oc(Nc3ccc(N4CCOCC4)nc3)nc2c1` reads 81%; that for `CCS(=O)(=O)c1ccc2oc(NC3CCC(C(C)(C)C)CC3)nc2c1` (mixture of isomers), 1%.
